Test results taken from patent US5563149A, “Aqueous solutions of pyridone carboxylic acids” (Cheil Foods & Chemicals, Inc., priority 1994, dated 1996).
≈ marks a conversion by molar mass, not a printed value.

Legend:
[1] = bioavailability and half-life; type: in vivo; details: compared with quinolone drugs commercially available or in development
[2] = Solubility of compound A in water with added acid or amino acid, and pH of the saturated solution; type: physicochemical; details: for solubility at 4 h: water, per ml of water
Method: The organic acids suitable as solubilizing agents are chosen depending on the correlationship between the organic acid and the physical properties of the selected quinolone compound. Therefore, a varity of organic acids and amino acids were evaluated to determine whether certain acids are suitable as solubilizing agents capable of increasing the water solubility of compound A and the pH of the aqueous solution is suitable for injection and/or infusion solutions.
Exemplary active substance in practicing the present invention is compound A. The test method of the solubility is set forth as follows:
Compound A was mixed with an organic acid or an amino acid in the mole ratios between 0.5 and 6 before water was added with reflux. Then, the resulting solution was rigorously shaken with stirring for 5 minutes so that it was made homogeneous. After the homogenous solution was left to stand at elevated temperature for 4 hours, it was extracted through 0.45 micro of membrane filter. The amounts of active substances present in extracts were quantified by high pressure liquid chromatography.

[3] = solubility in water (without solubilizing agent); type: physicochemical; details: no acid added
[4] = tested on: gram-negative and gram-positive bacteria; assay: in vitro antibacterial activity (gram-negative and gram-positive bacteria); type: cell-based
[5] = with asparagine, glutamic acid or gluconic acid; Korean Patent Application Publication No. 89-2040; cited from earlier work

C[C@]12C[C@@H](N)[C@H]1CN(c1nc3c(cc1F)c(=O)c(C(=O)O)cn3C1CC1)C2 (relative stereo) [compound A, 1-cyclopropyl-6-fluoro-l,4-dihydro-4-oxo-7-([1α, 5α,6β]6-amino-1-methyl-3-azabicyclo[3.2.0]heptan-3-yl)-1,8-naphtyridine-3-carboxylic acid]
bioavailability [1]: better
half-life [1]: better
pH of saturated solution ([2]; compound A with Alanine): 6.4
pH of saturated solution ([2]; compound A with Arginine): 10.0
pH of saturated solution ([2]; compound A with Asparagine): 6.2
pH of saturated solution ([2]; compound A with Aspartic acid): 5.3
pH of saturated solution ([2]; compound A with Cinnamic acid): 1.8
pH of saturated solution ([2]; compound A with Galacturonic (acid)): 3.3
pH of saturated solution ([2]; compound A with Gluconic acid): 3.3
pH of saturated solution ([2]; compound A with Gluconic acid lactone): 3.6
pH of saturated solution ([2]; compound A with Glutamine): 6.4
pH of saturated solution ([2]; compound A with Glutaric acid): 3.8
pH of saturated solution ([2]; compound A with Histidine): 7.6
pH of saturated solution ([2]; compound A with Hydrochloric acid): 2.0
pH of saturated solution ([2]; compound A with Isoleucine): 6.4
pH of saturated solution ([2]; compound A with L-cysteine): 6.2
pH of saturated solution ([2]; compound A with L-valine): 6.4
pH of saturated solution ([2]; compound A with Malic acid): 3.4
pH of saturated solution ([2]; compound A with Methionine): 6.4
pH of saturated solution ([2]; compound A with Oxalic acid): 4.2
pH of saturated solution ([2]; compound A with Succinic acid): 4.0
pH of saturated solution ([2]; compound A with Threonine): 6.3
solubility at 4 h ([2]; with Alanine): 1300 µg/mL (≈ 3.49 mM)
solubility at 4 h ([2]; with Arginine): 8200 µg/mL (≈ 22 mM)
solubility at 4 h ([2]; with Asparagine): 2100 µg/mL (≈ 5.64 mM)
solubility at 4 h ([2]; with Aspartic acid): 37600 µg/mL (≈ 101 mM)
solubility at 4 h ([2]; with Cinnamic acid): 2100 µg/mL (≈ 5.64 mM)
solubility at 4 h ([2]; with Galacturonic (acid)): 18300 µg/mL (≈ 49.1 mM)
solubility at 4 h ([2]; with Gluconic acid lactone): 28100 µg/mL (≈ 75.5 mM)
solubility at 4 h ([2]; with Gluconic acid): 33400 µg/mL (≈ 89.7 mM)
solubility at 4 h ([2]; with Glutamine): 1600 µg/mL (≈ 4.3 mM)
solubility at 4 h ([2]; with Glutaric acid): 12100 µg/mL (≈ 32.5 mM)
solubility at 4 h ([2]; with Histidine): 2100 µg/mL (≈ 5.64 mM)
solubility at 4 h ([2]; with Hydrochloric acid): 44300 µg/mL (≈ 119 mM)
solubility at 4 h ([2]; with Isoleucine): 1400 µg/mL (≈ 3.76 mM)
solubility at 4 h ([2]; with L-cysteine): 2300 µg/mL (≈ 6.18 mM)
solubility at 4 h ([2]; with L-valine): 1300 µg/mL (≈ 3.49 mM)
solubility at 4 h ([2]; with Malic acid): 48700 µg/mL (≈ 131 mM)
solubility at 4 h ([2]; with Methionine): 1500 µg/mL (≈ 4.03 mM)
solubility at 4 h ([2]; with Oxalic acid): 3500 µg/mL (≈ 9.4 mM)
solubility at 4 h ([2]; with Succinic acid): 47600 µg/mL (≈ 128 mM)
solubility at 4 h ([2]; with Threonine): 1500 µg/mL (≈ 4.03 mM)
solubility of compound A / pH of the resulting solution (in words) ([2]; with glutaric acid, cinnamic acid, galacturonic acid, glutamine, isoleusine, threonine, histidine, L-cysteine, alanine, arginine, L-valine, methionine or oxaline): did not substantilly improve the solubility of compound A or the pH of the resulting solution is unsuitable as injection and/or infusion solutions
solubility in water [3]: not substantially soluble or little soluble in water
antibacterial activities compared with Lomefloxacin and Ofloxacin [4]: superior

CCn1cc(C(=O)O)c(=O)c2cc(F)c(N3CCNCC3)nc21 [Enoxacin]
deposits in solutions [5]: do not lead to deposits
